test system: native tau aggregates; assay: TAU radioligand in vitro displacement assay ([3H]T808 autoradiography on human AD brain sections); format: binding; settings: compound 10 nM, radioligand [3H]T808 10 nM, 50 mM Tris pH 7.4, room temperature, 30 min
Outline: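 Human AD brain cryosections (10 μm) co-incubated with [3H]T808 (10 nM) and test compound at various concentrations in 50 mM Tris pH 7.4, 30 min at room temperature, then washed at 4° C. Autoradiography after 5-day plate exposure. % displacement from ROI specific binding, white-matter signal subtracted as non-specific; cold T808 internal control.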

| SMILES | % displacement of [3H]T808 (10 nM) at 10 nM [%] |
| --- | --- |
| COc1ccc(-c2cn3ccc(N4CCCC4)nc3n2)cc1 [Example 43, 2-(4-Methoxyphenyl)-7-pyrrolidin-1-ylimidazo[1,2-a]pyrimidine] | 29 |
| COc1ccc(-c2cn3ccc(N(C)C)nc3n2)cc1 [Example 36, 2-(4-Methoxyphenyl)-N,N-dimethylimidazo[1,2-a]pyrimidin-7-amine] | 47 |
| CN(C)c1ccn2cc(-c3ccccc3)nc2n1 [Example 18, N,N-Dimethyl-2-phenylimidazo[1,2-a]pyrimidin-7-amine] | 35 |
| FC1CCN(c2ccn3cc(-c4ccc5c(c4)OCO5)nc3n2)CC1 [Example 7, 2-(1,3-Benzodioxol-5-yl)-7-(4-fluoropiperidin-1-yl)imidazo[1,2-a]pyrimidine] | 21 |
| Cc1cccc(-c2cn3ccc(N4CCC(CCF)CC4)nc3n2)c1 [Example 59, 7-[4-(2-Fluoroethyl)piperidin-1-yl]-2-(3-methylphenyl)imidazo[1,2-a]pyrimidine] | 10 |
| COc1cccc(-c2cn3ccc(N(C)C)nc3n2)c1 [Example 35, 2-(3-Methoxyphenyl)-N,N-dimethylimidazo[1,2-a]pyrimidin-7-amine] | 34 |
| FC1CCN(c2ccn3cc(-c4ccccc4)nc3n2)CC1 [Example 2, 7-(4-Fluoropiperidin-1-yl)-2-phenylimidazo[1,2-a]pyrimidine] | 19 |
| FCCC1CCN(c2ccn3cc(-c4ccc5c(c4)OCO5)nc3n2)CC1 [Example 57, 2-(1,3-Benzodioxol-5-yl)-7-[4-(2-fluoroethyl)piperidin-1-yl]imidazo[1,2-a]pyrimidine] | 9 |
| CO[C@@H]1CCN(c2ccn3cc(-c4ccccc4)nc3n2)C1 [Example 31, 7-[(3R)-3-Methoxypyrrolidin-1-yl]-2-phenylimidazo[1,2-a]pyrimidine] | 7 |
| CN(C)c1ccn2cc(-c3ccc4c(c3)OCCO4)nc2n1 [Example 38, 2-(2,3-Dihydro-1,4-benzodioxin-6-yl)-N,N-dimethylimidazo[1,2-a]pyrimidin-7-amine] | 37 |
| Cc1ccc(-c2cn3ccc(N4CCC(F)CC4)nc3n2)cc1 [Example 11, 7-(4-Fluoropiperidin-1-yl)-2-(4-methylphenyl)imidazo[1,2-a]pyrimidine] | 4 |
| CN(C)c1ccn2cc(-c3ccc4c(c3)OCO4)nc2n1 [Example 37, 2-(1,3-Benzodioxol-5-yl)-N,N-dimethylimidazo[1,2-a]pyrimidin-7-amine] | 46 |
| COc1ccc(-c2cn3ccc(N4CCCCC4)nc3n2)cc1 [Example 49, 2-(4-Methoxyphenyl)-7-piperidin-1-ylimidazo[1,2-a]pyrimidine] | 17 |
| COc1cccc(-c2cn3ccc(N4CCOCC4)nc3n2)c1 [Example 41, 4-[2-(3-Methoxyphenyl)imidazo[1,2-a]pyrimidin-7-yl]morpholine] | 16 |
| Cc1ccc(-c2cn3ccc(N4CCCCC4)nc3n2)cc1 [Example 51, 2-(4-Methylphenyl)-7-piperidin-1-ylimidazo[1,2-a]pyrimidine] | 8 |
| COc1cccc(-c2cn3ccc(N4CCCCC4)nc3n2)c1 [Example 50, 2-(3-Methoxyphenyl)-7-piperidin-1-ylimidazo[1,2-a]pyrimidine] | 14 |
| FCCC1CCN(c2ccn3cc(-c4ccc5c(c4)OCCO5)nc3n2)CC1 [Example 58, 2-(2,3-Dihydro-1,4-benzodioxin-6-yl)-7-[4-(2-fluoroethyl)piperidin-1-yl]imidazo[1,2-a]pyrimidine] | 18 |
| Cc1ccc(-c2cn3ccc(N4CCCC4)nc3n2)cc1 [Example 44, 2-(4-Methylphenyl)-7-pyrrolidin-1-ylimidazo[1,2-a]pyrimidine] | 28 |
| CNc1ccn2cc(-c3ccccc3)nc2n1 [Example 1, N-Methyl-2-phenylimidazo[1,2-a]pyrimidin-7-amine] | 37 |
| CN(C)c1ccn2cc(-c3ccc(N4CCOCC4)cc3)nc2n1 [Example 45, N,N-Dimethyl-2-(4-morpholin-4-ylphenyl)imidazo[1,2-a]pyrimidin-7-amine] | 29 |

Other lines, results leading:

| % displacement of [3H]T808 (10 nM) at 10 nM [%] | SMILES |
| --- | --- |
| 41 | CNc1ccn2cc(-c3ccc(OC)cc3)nc2n1 [Example 83, 2-(4-Methoxyphenyl)-N-methylimidazo[1,2-a]pyrimidin-7-amine] |
| 12 | FC1CCN(c2ccn3cc(-c4nc5ccccc5s4)nc3n2)CC1 [Example 79, 2-[7-(4-Fluoropiperidin-1-yl)imidazo[1,2-a]pyrimidin-2-yl]-1,3-benzothiazole] |
| 15 | CN(CCF)c1ccn2cc(-c3ccc4c(c3)OCO4)nc2n1 [Example 87, 2-(1,3-Benzodioxol-5-yl)-N-(2-fluoroethyl)-N-methylimidazo[1,2-a]pyrimidin-7-amine] |
| 36 | COc1cccc(-c2cn3ccc(N4CCC4)nc3n2)c1 [Example 113, 7-(Azetidin-1-yl)-2-(3-methoxyphenyl)imidazo[1,2-a]pyrimidine] |
| 34 | CCN(C)c1ccn2cc(-c3ccc(OC)cc3)nc2n1 [Example 66, N-Ethyl-2-(4-methoxyphenyl)-N-methylimidazo[1,2-a]pyrimidin-7-amine] |
| 43 | CNc1ccn2cc(-c3ccc(OCCF)cc3)nc2n1 [Example 123, 2-(4-(2-Fluoroethoxy)phenyl)-N-methylimidazo[1,2-a]pyrimidin-7-amine] |
| 36 | CNc1ccn2cc(-c3ccc(OCF)cc3)nc2n1 [Example 132, 2-(4-(Fluoromethoxy)phenyl)-N-methylimidazo[1,2-a]pyrimidin-7-amine] |
| 12 | CNc1ccn2cc(-c3cccc(OCCCF)c3)nc2n1 [Example 130, 2-(3-(3-Fluoropropoxy)phenyl)-N-methylimidazo[1,2-a]pyrimidin-7-amine] |
| 5 | FCCOc1cccc(-c2cn3ccc(N4CCC4)nc3n2)c1 [Example 115, 7-(Azetidin-1-yl)-2-(3-(2-fluoroethoxy)phenyl)imidazo[1,2-a]pyrimidine] |
| 25 | COc1ccc(-c2cn3ccc(N4CC(F)C4)nc3n2)cc1 [Example 70, 7-(3-Fluoroazetidin-1-yl)-2-(4-methoxyphenyl)imidazo[1,2-a]pyrimidine] |
| 42 | COc1ccc(-c2cn3ccc(N(C)C4CC4)nc3n2)cc1 [Example 93, N-Cyclopropyl-2-(4-methoxyphenyl)-N-methylimidazo[1,2-a]pyrimidin-7-amine] |
| 22 | Fc1cccc(-c2cn3ccc(N4CCC4)nc3n2)c1 [Example 120, 7-(Azetidin-1-yl)-2-(3-fluorophenyl)imidazo[1,2-a]pyrimidine] |
| 21 | CNc1ccn2cc(-c3ccc(C)c(OC)c3)nc2n1 [Example 143, 2-(3-Methoxy-4-methylphenyl)-N-methylimidazo[1,2-a]pyrimidin-7-amine] |
| 30 | FCOc1ccc(-c2cn3ccc(N4CCC4)nc3n2)cc1 [Example 97, 7-(Azetidin-1-yl)-2-[4-(fluoromethoxy)phenyl]imidazo[1,2-a]pyrimidine] |
| 18 | CNc1ccn2cc(-c3ccc4c(c3)CC(=O)N4)nc2n1 [Example 110, 5-(7-(Methylamino)imidazo[1,2-a]pyrimidin-2-yl)indolin-2-one] |
| 15 | COc1ccc(-c2cn3ccc(NC(C)C)nc3n2)cc1 [Example 77, N-Isopropyl-2-(4-methoxy-phenyl)-imidazo[1,2-a]pyrimidin-7-amine] |
| 30 | CNc1ccn2cc(-c3ccc(NC(C)=O)cc3)nc2n1 [Example 109, N-(4-(7-(Methylamino)imidazo[1,2-a]pyrimidin-2-yl)phenyl)acetamide] |
| 40 | CNc1ccn2cc(-c3ccc(OCCCF)cc3)nc2n1 [Example 124, 2-(4-(3-Fluoropropoxy)phenyl)-N-methylimidazo[1,2-a]pyrimidin-7-amine] |
| 14 | Oc1cccc(-c2cn3ccc(NC4CC4)nc3n2)c1 [Example 133, 3-(7-(Cyclopropylamino)imidazo[1,2-a]pyrimidin-2-yl)phenol] |
| 8 | COc1ccc(-c2cn3ccc(NCC(F)(F)F)nc3n2)cc1 [Example 78, 2-(4-Methoxyphenyl)-N-(2,2,2-trifluoroethyl)imidazo[1,2-a]pyrimidin-7-amine] |
| 22 | Cc1cccc(-c2cn3ccc(N(C)CCF)nc3n2)c1 [Example 88, N-(2-Fluoroethyl)-N-methyl-2-(3-methylphenyl)imidazo[1,2-a]pyrimidin-7-amine] |
| 15 | FCCCOc1ccc(-c2cn3ccc(N4CCC4)nc3n2)cc1 [Example 112, 7-(Azetidin-1-yl)-2-(4-(3-fluoropropoxy)phenyl)imidazo[1,2-a]pyrimidine] |

same assay, conditions: compound 1 uM, radioligand [3H]T808 10 nM, 50 mM Tris pH 7.4, room temperature, 30 min

| % displacement of [3H]T808 (10 nM) at 1 uM [%] | SMILES |
| --- | --- |
| 92 | CN(C)c1ccn2cc(-c3ccccc3)nc2n1 [Example 18, N,N-Dimethyl-2-phenylimidazo[1,2-a]pyrimidin-7-amine] |
| 75 | FC1CCN(c2ccn3cc(-c4ccc5c(c4)OCO5)nc3n2)CC1 [Example 7, 2-(1,3-Benzodioxol-5-yl)-7-(4-fluoropiperidin-1-yl)imidazo[1,2-a]pyrimidine] |
| 72 | FC1CCN(c2ccn3cc(-c4ccccc4)nc3n2)CC1 [Example 2, 7-(4-Fluoropiperidin-1-yl)-2-phenylimidazo[1,2-a]pyrimidine] |
| 81 | Cc1ccc(-c2cn3ccc(N4CCC(F)CC4)nc3n2)cc1 [Example 11, 7-(4-Fluoropiperidin-1-yl)-2-(4-methylphenyl)imidazo[1,2-a]pyrimidine] |
| 70 | FC1CCN(c2ccn3cc(-c4ccsc4)nc3n2)CC1 [Example 63, 7-(4-Fluoropiperidin-1-yl)-2-thiophen-3-ylimidazo[1,2-a]pyrimidine] |
| 84 | CN(CCF)c1ccn2cc(-c3ccccc3)nc2n1 [Example 21, N-(2-Fluoroethyl)-N-methyl-2-phenylimidazo[1,2-a]pyrimidin-7-amine] |
